Laboratory results reported in the supplement of paper PMC11451515.

How the values were obtained:
Test in all cases: AUC of viability dose-response curve (% viability x log10 dose units); higher = less sensitive
Settings in all cases: 48 h
[1] = system: NOMO1
Outline: (§1)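 Viability of medium-adapted leukemia cells was measured by CellTiter-Glo One luminescence after 48 h at 37°C with library compounds in DMSO. Doses were 11 threefold steps from 47 μM to 0.79 nM, in 1536-well plates at 500 or 1000 cells/well. Signals were normalised per plate to DMSO and cell-free wells and fitted with a four-parameter log-logistic model on log10 dose. Area under the curve was integrated by trapezoidal rule, with curves exceeding full viability scaled and failed quality-control curves removed.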

[2] = system: P12-Ichikawa
Outline: as §1

[3] = system: SEM cells
Outline: as §1

[4] = RPMI 5 mM glucose + 10% dialyzed FBS

Row | SMILES | AUC of viability dose-response curve ([1]; HPLM + 10% dialyzed FBS) | AUC of viability dose-response curve ([1]; RPMI 5 mM glucose + 10% FBS) | AUC of viability dose-response curve [1, 4] | AUC of viability dose-response curve ([2]; HPLM + 10% dialyzed FBS) | AUC of viability dose-response curve ([2]; RPMI 5 mM glucose + 10% FBS) | AUC of viability dose-response curve [2, 4] | AUC of viability dose-response curve ([3]; HPLM + 10% dialyzed FBS) | AUC of viability dose-response curve ([3]; RPMI 5 mM glucose + 10% FBS) | AUC of viability dose-response curve [3, 4]
1 | COc1cccc2c1[C@]13CCN(CC4CC4)[C@H](C2)[C@]1(OC)CCC(=O)C3 | 469 | 459 | 473 | 451 | 436 | 446 | 422 | 416 | 421
2 | C[S+](=O)([O-])c1ccc(Oc2cc(F)cc(C#N)c2)c2c1[C@H](O)C(F)(F)C2 | 455 | 462 | 448 | 467 | 469 | 472 | 467 | 459 | 467
3 | CCOC1=CC=CC=C1N\2C(=O)C3=C(C=CC=C3)\N=C2C(C)N4CCN(CC4)C(=O)COC5=CC=C(Cl)C=C5 (centres undefined) | 304 | 330 | 357 | 303 | 327 | 320 | 323 | 280 | 297
4 | Nc1ncnc2c1c(-c1cccc(OCc3ccccc3)c1)cn2C1CC(CN2CCCC2)C1 (centres undefined) | 411 | 441 | 423 | 463 | 466 | 465 | 388 | 414 | 405
5 | CCOC(=O)\C1=C\[C@@H](OC(CC)CC)[C@H](NC(C)=O)[C@@H](N)C1 | 440 | 450 | 454 | 463 | 460 | 419 | 416 | 432 | 414
6 | OC(CN1CCN(c2cccc(Cl)c2)CC1)C(c1ccccc1)c1ccccc1 (centres undefined) | 265 | 324 | 341 | 238 | 318 | 307 | 319 | 252 | 257
7 | CC1(C)C(N(O)C(=O)Nc2ccc(Cl)cc2)N(c2ccc(Cl)cc2)C(=O)N1CC(=O)N/N=C/C=C/c1ccc([N+](=O)[O-])o1 (centres undefined) | 447 | 447 | 468 | 465 | 461 | 453 | 453 | 386 | 382
8 | C[C@]12CC[C@H]3[C@@H](CCC/4=C/C(=O)CC[C@]34C)[C@@H]1CC[C@@H]2OC(=O)CCC5CCCC5 | 461 | 471 | 464 | 448 | 459 | 466 | 452 | 463 | 462
9 | CCOc1ccc(Cc2cc([C@@H]3O[C@H](CO)[C@@H](O)[C@H](O)[C@H]3O)ccc2Cl)cc1 | 470 | 464 | 476 | 459 | 466 | 469 | 465 | 450 | 468
10 | CON(C)C(=O)N1/N=C(S[C@@]1(CCCN)C2=CC=CC=C2)/C3=CC(=CC=C3F)F | 242 | 211 | 226 | 183 | 177 | 206 | 162 | 171 | 193
11 | Cc1c(C)c2c(c(C)c1O)CCC(C)(COc1ccc(CC3SC(=O)NC3=O)cc1)O2 (centres undefined) | 466 | 466 | 454 | 477 | 477 | 462 | 467 | 462 | 471
